Test results from ChEMBL document CHEMBL3046635, “Synthesis and Herbicidal Activity of New Pyrazole-4-carboxamide Derivatives” (J Pestic Sci, 2004).
Activity calls are given as the source filed them.

Each compound was assayed on Rotala indica (assay: Pre-emergence herbicidal activity against Rotala indica at 500 g a.i/ha measured after 14 days). Details: not given.
Format: functional, organism-based

Compound	Activity
CCCONC(=O)c1cn(C)nc1OCc1cccc(C(F)(F)F)c1	Active
Cn1cc(C(=O)NOc2ccc(Cl)cc2)c(OCc2cccc(C(F)(F)F)c2)n1	Active

Each compound was assayed on Elatine triandra (assay: Post-emergence herbicidal activity against Elatine triandra assessed as bleaching of stem/leaf parts). Details: not given.
Format: functional, organism-based

Compound	Activity
CCCONC(=O)c1cn(C)nc1OCc1cccc(C(F)(F)F)c1	Active
Cn1cc(C(=O)NOc2ccc(Cl)cc2)c(OCc2cccc(C(F)(F)F)c2)n1	Active

Each compound was assayed on Lindernia procumbens (assay: Pre-emergence herbicidal activity against Lindernia procumbens at 500 g a.i/ha measured after 14 days). Details: not given.
Format: functional, organism-based

Compound	Activity
CCCONC(=O)c1cn(C)nc1OCc1cccc(C(F)(F)F)c1	Active
Cn1cc(C(=O)NOc2ccc(Cl)cc2)c(OCc2cccc(C(F)(F)F)c2)n1	Active

Each compound was assayed on Rotala indica (assay: Post-emergence herbicidal activity against Rotala indica assessed as bleaching of stem/leaf parts). Details: not given.
Format: functional, organism-based

Compound	Activity
CCCONC(=O)c1cn(C)nc1OCc1cccc(C(F)(F)F)c1	Active
Cn1cc(C(=O)NOc2ccc(Cl)cc2)c(OCc2cccc(C(F)(F)F)c2)n1	Active

The compounds below were run on Pontederia vaginalis (assay: Pre-emergence herbicidal activity against Monochoria vaginalis at 500 g a.i/ha measured after 14 days). Details: not given.
Format: functional, organism-based

Compound	Activity
CCCONC(=O)c1cn(C)nc1OCc1cccc(C(F)(F)F)c1	Active
Cn1cc(C(=O)NOc2ccc(Cl)cc2)c(OCc2cccc(C(F)(F)F)c2)n1	Active

What follows are compounds tested on Rotala indica (assay: Pre-emergence herbicidal activity against Rotala indica assessed as bleaching of stem/leaf parts). Details: not given.
Format: functional, organism-based

Compound	Activity
CCCONC(=O)c1cn(C)nc1OCc1cccc(C(F)(F)F)c1	Active
Cn1cc(C(=O)NOc2ccc(Cl)cc2)c(OCc2cccc(C(F)(F)F)c2)n1	Active

These compounds were tested on Eleocharis acicularis (assay: Pre-emergence herbicidal activity against Eleocharis acicularis at 500 g a.i/ha measured after 14 days). Details: not given.
Format: functional, organism-based

Compound	Activity
CCCONC(=O)c1cn(C)nc1OCc1cccc(C(F)(F)F)c1	Active
Cn1cc(C(=O)NOc2ccc(Cl)cc2)c(OCc2cccc(C(F)(F)F)c2)n1	Active

What follows are compounds tested on Pontederia vaginalis (assay: Post-emergence herbicidal activity against Monochoria vaginalis assessed as bleaching of stem/leaf parts). Details: not given.
Format: functional, organism-based

Compound	Activity
CCCONC(=O)c1cn(C)nc1OCc1cccc(C(F)(F)F)c1	Active
Cn1cc(C(=O)NOc2ccc(Cl)cc2)c(OCc2cccc(C(F)(F)F)c2)n1	Active

What follows are compounds tested on Schoenoplectiella juncoides (assay: Pre-emergence herbicidal activity against Schoenoplectiella juncoides at 500 g a.i/ha measured after 14 days). Details: not given.
Format: functional, organism-based

Compound	Activity
CCCONC(=O)c1cn(C)nc1OCc1cccc(C(F)(F)F)c1	Active
Cn1cc(C(=O)NOc2ccc(Cl)cc2)c(OCc2cccc(C(F)(F)F)c2)n1	Active

Each compound was assayed on Cyperus difformis (assay: Post-emergence herbicidal activity against Cyperus difformis assessed as bleaching of stem/leaf parts). Details: not given.
Format: functional, organism-based

Compound	Activity
CCCONC(=O)c1cn(C)nc1OCc1cccc(C(F)(F)F)c1	Active
Cn1cc(C(=O)NOc2ccc(Cl)cc2)c(OCc2cccc(C(F)(F)F)c2)n1	Active

Each compound was assayed on Ammannia multiflora (assay: Pre-emergence herbicidal activity against Ammannia multiflora assessed as bleaching of stem/leaf parts). Details: not given.
Format: functional, organism-based

Compound	Activity
CCCONC(=O)c1cn(C)nc1OCc1cccc(C(F)(F)F)c1	Active
Cn1cc(C(=O)NOc2ccc(Cl)cc2)c(OCc2cccc(C(F)(F)F)c2)n1	Active

What follows are compounds tested on Echinochloa oryzicola (assay: Pre-emergence herbicidal activity against Echinochloa oryzicola assessed as bleaching of stem/leaf parts). Details: not given.
Format: functional, organism-based

Compound	Activity
CCCONC(=O)c1cn(C)nc1OCc1cccc(C(F)(F)F)c1	Active
Cn1cc(C(=O)NOc2ccc(Cl)cc2)c(OCc2cccc(C(F)(F)F)c2)n1	Active

Each compound was assayed on Ammannia multiflora (assay: Post-emergence herbicidal activity against Ammannia multiflora assessed as bleaching of stem/leaf parts). Details: not given.
Format: functional, organism-based

Compound	Activity
CCCONC(=O)c1cn(C)nc1OCc1cccc(C(F)(F)F)c1	Active
Cn1cc(C(=O)NOc2ccc(Cl)cc2)c(OCc2cccc(C(F)(F)F)c2)n1	Active

What follows are compounds tested on Elatine triandra (assay: Pre-emergence herbicidal activity against Elatine triandra assessed as bleaching of stem/leaf parts). Details: not given.
Format: functional, organism-based

Compound	Activity
CCCONC(=O)c1cn(C)nc1OCc1cccc(C(F)(F)F)c1	Active
Cn1cc(C(=O)NOc2ccc(Cl)cc2)c(OCc2cccc(C(F)(F)F)c2)n1	Active

Each compound was assayed on Echinochloa oryzicola (assay: Post-emergence herbicidal activity against Echinochloa oryzicola assessed as bleaching of stem/leaf parts). Details: not given.
Format: functional, organism-based

Compound	Activity
CCCONC(=O)c1cn(C)nc1OCc1cccc(C(F)(F)F)c1	Active
Cn1cc(C(=O)NOc2ccc(Cl)cc2)c(OCc2cccc(C(F)(F)F)c2)n1	Active

What follows are compounds tested on Ammannia multiflora (assay: Pre-emergence herbicidal activity against Ammannia multiflora at 500 g a.i/ha measured after 14 days). Details: not given.
Format: functional, organism-based

Compound	Activity
CCCONC(=O)c1cn(C)nc1OCc1cccc(C(F)(F)F)c1	Active
Cn1cc(C(=O)NOc2ccc(Cl)cc2)c(OCc2cccc(C(F)(F)F)c2)n1	Active

Each compound was assayed on Echinochloa oryzicola (assay: Pre-emergence herbicidal activity against Echinochloa oryzicola at 500 g a.i/ha measured after 14 days). Details: not given.
Format: functional, organism-based

Compound	Activity
CCCONC(=O)c1cn(C)nc1OCc1cccc(C(F)(F)F)c1	Active
Cn1cc(C(=O)NOc2ccc(Cl)cc2)c(OCc2cccc(C(F)(F)F)c2)n1	Active

These compounds were tested on Cyperus difformis (assay: Pre-emergence herbicidal activity against Cyperus difformis at 100 g a.i/ha measured after 14 days). Details: not given.
Format: functional, organism-based

Compound	Activity
CCCONC(=O)c1cn(C)nc1OCc1cccc(C(F)(F)F)c1	Active
Cn1cc(C(=O)NOc2ccc(Cl)cc2)c(OCc2cccc(C(F)(F)F)c2)n1	Active

Each compound was assayed on Schoenoplectiella juncoides (assay: Post-emergence herbicidal activity against Schoenoplectiella juncoides assessed as bleaching of stem/leaf parts). Details: not given.
Format: functional, organism-based

Compound	Activity
CCCONC(=O)c1cn(C)nc1OCc1cccc(C(F)(F)F)c1	Active
Cn1cc(C(=O)NOc2ccc(Cl)cc2)c(OCc2cccc(C(F)(F)F)c2)n1	Active

These compounds were tested on Lindernia procumbens (assay: Pre-emergence herbicidal activity against Lindernia procumbens at 100 g a.i/ha measured after 14 days). Details: not given.
Format: functional, organism-based

Compound	Activity
CCCONC(=O)c1cn(C)nc1OCc1cccc(C(F)(F)F)c1	Active
Cn1cc(C(=O)NOc2ccc(Cl)cc2)c(OCc2cccc(C(F)(F)F)c2)n1	Active

The compounds below were run on Elatine triandra (assay: Pre-emergence herbicidal activity against Elatine triandra at 500 g a.i/ha measured after 14 days). Details: not given.
Format: functional, organism-based

Compound	Activity
CCCONC(=O)c1cn(C)nc1OCc1cccc(C(F)(F)F)c1	Active
Cn1cc(C(=O)NOc2ccc(Cl)cc2)c(OCc2cccc(C(F)(F)F)c2)n1	Active

Each compound was assayed on Pontederia vaginalis (assay: Pre-emergence herbicidal activity against Monochoria vaginalis at 100 g a.i/ha measured after 14 days). Details: not given.
Format: functional, organism-based

Compound	Activity
CCCONC(=O)c1cn(C)nc1OCc1cccc(C(F)(F)F)c1	Active
Cn1cc(C(=O)NOc2ccc(Cl)cc2)c(OCc2cccc(C(F)(F)F)c2)n1	Active

Each compound was assayed on Eleocharis acicularis (assay: Post-emergence herbicidal activity against Eleocharis acicularis assessed as bleaching of stem/leaf parts). Details: not given.
Format: functional, organism-based

Compound	Activity
CCCONC(=O)c1cn(C)nc1OCc1cccc(C(F)(F)F)c1	Active
Cn1cc(C(=O)NOc2ccc(Cl)cc2)c(OCc2cccc(C(F)(F)F)c2)n1	Active

These compounds were tested on Rotala indica (assay: Pre-emergence herbicidal activity against Rotala indica at 100 g a.i/ha measured after 14 days). Details: not given.
Format: functional, organism-based

Compound	Activity
CCCONC(=O)c1cn(C)nc1OCc1cccc(C(F)(F)F)c1	Active
Cn1cc(C(=O)NOc2ccc(Cl)cc2)c(OCc2cccc(C(F)(F)F)c2)n1	Active

Each compound was assayed on Schoenoplectiella juncoides (assay: Pre-emergence herbicidal activity against Schoenoplectiella juncoides at 100 g a.i/ha measured after 14 days). Details: not given.
Format: functional, organism-based

Compound	Activity
CCCONC(=O)c1cn(C)nc1OCc1cccc(C(F)(F)F)c1	Active
Cn1cc(C(=O)NOc2ccc(Cl)cc2)c(OCc2cccc(C(F)(F)F)c2)n1	Active

The compounds below were run on Cyperus difformis (assay: Pre-emergence herbicidal activity against Cyperus difformis assessed as bleaching of stem/leaf parts). Details: not given.
Format: functional, organism-based

Compound	Activity
CCCONC(=O)c1cn(C)nc1OCc1cccc(C(F)(F)F)c1	Active
Cn1cc(C(=O)NOc2ccc(Cl)cc2)c(OCc2cccc(C(F)(F)F)c2)n1	Active

Each compound was assayed on Lindernia procumbens (assay: Post-emergence herbicidal activity against Lindernia procumbens assessed as bleaching of stem/leaf parts). Details: not given.
Format: functional, organism-based

Compound	Activity
CCCONC(=O)c1cn(C)nc1OCc1cccc(C(F)(F)F)c1	Active
Cn1cc(C(=O)NOc2ccc(Cl)cc2)c(OCc2cccc(C(F)(F)F)c2)n1	Active

Each compound was assayed on Schoenoplectiella juncoides (assay: Pre-emergence herbicidal activity against Schoenoplectiella juncoides assessed as bleaching of stem/leaf parts). Details: not given.
Format: functional, organism-based

Compound	Activity
CCCONC(=O)c1cn(C)nc1OCc1cccc(C(F)(F)F)c1	Active
Cn1cc(C(=O)NOc2ccc(Cl)cc2)c(OCc2cccc(C(F)(F)F)c2)n1	Active

Each compound was assayed on Pontederia vaginalis (assay: Pre-emergence herbicidal activity against Monochoria vaginalis assessed as bleaching of stem/leaf parts). Details: not given.
Format: functional, organism-based

Compound	Activity
CCCONC(=O)c1cn(C)nc1OCc1cccc(C(F)(F)F)c1	Active
Cn1cc(C(=O)NOc2ccc(Cl)cc2)c(OCc2cccc(C(F)(F)F)c2)n1	Active

These compounds were tested on Lindernia procumbens (assay: Pre-emergence herbicidal activity against Lindernia procumbens assessed as bleaching of stem/leaf parts). Details: not given.
Format: functional, organism-based

Compound	Activity
CCCONC(=O)c1cn(C)nc1OCc1cccc(C(F)(F)F)c1	Active
Cn1cc(C(=O)NOc2ccc(Cl)cc2)c(OCc2cccc(C(F)(F)F)c2)n1	Active

Each compound was assayed on Echinochloa oryzicola (assay: Pre-emergence herbicidal activity against Echinochloa oryzicola at 100 g a.i/ha measured after 14 days). Details: not given.
Format: functional, organism-based

Compound	Activity
CCCONC(=O)c1cn(C)nc1OCc1cccc(C(F)(F)F)c1	Active
Cn1cc(C(=O)NOc2ccc(Cl)cc2)c(OCc2cccc(C(F)(F)F)c2)n1	inactive

What follows are compounds tested on Oryza sativa (assay: Phytotoxicity against Oryza sativa cv. Koshihikari (rice) at 100 g a.i/ha measured after 14 days). Details: in vivo, 336 h.
Format: organism-based

Compound	Activity
CCCONC(=O)c1cn(C)nc1OCc1cccc(C(F)(F)F)c1	Non-toxic
Cn1cc(C(=O)NOc2ccc(Cl)cc2)c(OCc2cccc(C(F)(F)F)c2)n1	Non-toxic

Each compound was assayed on Cyperus difformis (assay: Pre-emergence herbicidal activity against Cyperus difformis at 500 g a.i/ha measured after 14 days). Details: not given.
Format: functional, organism-based

Compound	Activity
CCCONC(=O)c1cn(C)nc1OCc1cccc(C(F)(F)F)c1	Active
Cn1cc(C(=O)NOc2ccc(Cl)cc2)c(OCc2cccc(C(F)(F)F)c2)n1	Active

What follows are compounds tested on Eleocharis acicularis (assay: Pre-emergence herbicidal activity against Eleocharis acicularis at 100 g a.i/ha measured after 14 days). Details: not given.
Format: functional, organism-based

Compound	Activity
CCCONC(=O)c1cn(C)nc1OCc1cccc(C(F)(F)F)c1	Active
Cn1cc(C(=O)NOc2ccc(Cl)cc2)c(OCc2cccc(C(F)(F)F)c2)n1	Active

These compounds were tested on Oryza sativa (assay: Phytotoxicity against Oryza sativa cv. Koshihikari (rice) at 500 g a.i/ha measured after 14 days). Details: in vivo, 336 h.
Format: organism-based

Compound	Activity
CCCONC(=O)c1cn(C)nc1OCc1cccc(C(F)(F)F)c1	Toxic
Cn1cc(C(=O)NOc2ccc(Cl)cc2)c(OCc2cccc(C(F)(F)F)c2)n1	Non-toxic

The compounds below were run on Elatine triandra (assay: Pre-emergence herbicidal activity against Elatine triandra at 100 g a.i/ha measured after 14 days). Details: not given.
Format: functional, organism-based

Compound	Activity
CCCONC(=O)c1cn(C)nc1OCc1cccc(C(F)(F)F)c1	Active
Cn1cc(C(=O)NOc2ccc(Cl)cc2)c(OCc2cccc(C(F)(F)F)c2)n1	Active

Each compound was assayed on Ammannia multiflora (assay: Pre-emergence herbicidal activity against Ammannia multiflora at 100 g a.i/ha measured after 14 days). Details: not given.
Format: functional, organism-based

Compound	Activity
CCCONC(=O)c1cn(C)nc1OCc1cccc(C(F)(F)F)c1	Active
Cn1cc(C(=O)NOc2ccc(Cl)cc2)c(OCc2cccc(C(F)(F)F)c2)n1	Active

These compounds were tested on Eleocharis acicularis (assay: Pre-emergence herbicidal activity against Eleocharis acicularis assessed as bleaching of stem/leaf parts). Details: not given.
Format: functional, organism-based

Compound	Activity
CCCONC(=O)c1cn(C)nc1OCc1cccc(C(F)(F)F)c1	Active
Cn1cc(C(=O)NOc2ccc(Cl)cc2)c(OCc2cccc(C(F)(F)F)c2)n1	Active
